Assay results as given in patent US5268389A, “Thiocarboxylate ester compounds compositions containing the same” (priority 1990, dated 1993).
Values belong to the molecule of their own block, whether it stands above or below them.

How the values were obtained:
HIV [1] = assay: Reduction of HIV cytopathic effect, MT2C (MT2 cells inoculated with cultured virus-infected MT2 cells); assay type: cell-based; details: Human immunodeficiency virus 1, MT2, MT2 cells inoculated with cultured viral infected MT2 cells; read-out: Activity of Anti-HIV Compounds (EC50), MT2C
Protocol: (§1) The compounds of Examples were tested for anti-AIDS activity by subjecting them to standard National Cancer Institute ("NCI") in vitro screening procedures. In carrying out each test, two blanks were run. In the first blank, HIV and a culture of a standard human cell line were incubated together to measure the infectivity of the virus. The viability of the cells was measured after holding for six or seven days. In an "effective" test, most cells were infected before the holding period was complete.
(§2) In the second blank, the cell line culture and the compound being tested (but not virus) were incubated together to measure the toxicity of the drug to the cellline. The viability of the cells was measured as a function of concentration of the compound, after holding for seven days. […]
(§3) Finally, the protective effects of the test compounds were measured. Each cell culture and test compound were incubated with the virus and the viability of the cells was measured as a function of compound concentration after holding for six or seven days. […] At this point, cell viability increases steadily toward 100% unless the toxic effect of the compound (as measured in the second blank) takes effect. […] The therapeutic index TI50 is calculated as IC50/EC50.
(§4) Values of test compound concentrations required for between 20 and 50% reduction of the viral cytopathic effect can also be determined. […]

HIV [2] = assay: Reduction of HIV cytopathic effect, MT2V (MT2 cells, free virus); assay type: cell-based; details: Human immunodeficiency virus 1, read-out: Activity of Anti-HIV Compounds (EC50), MT2V
Protocol: as §1, §2, §3, §4

HIV [3] = assay: Reduction of HIV cytopathic effect, CEMC (CEM cells, virus previously cultured with host cells); assay type: cell-based
Protocol: as §1
(§5) In the second blank, the cell line culture and the compound being tested (but not virus) were incubated together to measure the toxicity of the drug to the cellline. The viability of the cells was measured as a function of concentration of the compound, after holding for seven days. Typically, the cells survive at low compound concentrations, but at some higher concentration, toxicity of the compound is manifested and the cells die. The concentration of the test compound that results in 50% inhibition of cell growth is defined as the IC50.
Finally, the protective effects of the test compounds were measured. Each cell culture and test compound were incubated with the virus and the viability of the cells was measured as a function of compound concentration after holding for six or seven days. If the compound is active in protecting the cells against the virus, there is typically low cell viability until an effective concentration of the test compound is reached. At this point, cell viability increases steadily toward 100% unless the toxic effect of the compound (as measured in the second blank) takes effect. […] The therapeutic index TI50 is calculated as IC50/EC50.
as §4
5) Individual wells are analyzed spectrophotometrically to quantity formazan production, and in addition are viewed microscopically for detection of viable cells and confirmation of protective activity. […]

HIV [4] = assay: microbe, parasite or virus in culture; assay type: cell-based
Protocol: as §1, §5
(§6) Finally, the protective effects of the test compounds were measured. Each cell culture and test compound were incubated with the virus and the viability of the cells was measured as a function of compound concentration after holding for six or seven days. If the compound is active in protecting the cells against the virus, there is typically low cell viability until an effective concentration of the test compound is reached. At this point, cell viability increases steadily toward 100% unless the toxic effect of the compound (as measured in the second blank) takes effect. The concentration of the test compound that results in 50% "control," i.e., a 50% reduction of the viral cytopathic effect, is defined as the EC 50. The therapeutic index TI50 is calculated as IC50/EC50.
(§7) Values of test compound concentrations required for between 20 and 50% reduction of the viral cytopathic effect can also be determined. Such compounds are classified as moderately active.
(§8) The compounds were tested to determine their reduction of HIV cytopathic effect on the human cell lines CEM and MT2. Tests were done by innoculating these cell lines either with free HIV (V) or with a virus Previously cultured with host cells (C). Thus, in Table III the designation CEMV means CEM line cells innoculated with free virus and MT2C means MT2 cells innoculated with cultured viral infected MT2 cells. In some cases the compound was also tested on a cell line together with a sub-effective amount of the known HIV viricide AZT. This is done to test possible synergistic effects. Such a test on the CEM line is denoted CEMZ.
(§9) 1) T4 lymphocytes (CEM cell line) are exposed to HIV at a virus to cell ratio of approximately 0.05 and plated along with non-infected control cells in 96-well microtiter plates.
(§10) 2) Each candidate agent is dissolved in dimethyl sulfoxide (unless otherwise indicated), then diluted 1:200 in cell culture medium. Further dilutions (five-fold) are prepared before adding to an equal volume of medium containing either infected or noninfected cells.
(§11) 3) Cultures are incubated at 37° C. in a 5% carbon dioxide atmosphere for seven days (if six days the CEMV test is identified as CEM-6).
(§12) 4) The tetrazolium salt, XTT, is added to all wells, and cultures are incubated to allow formazan color development by viable cells.
(§13) 5) Individual wells are analyzed spectrophotometrically to quantity formazan production, and in addition are viewed microscopically for detection of viable cells and confirmation of protective activity.
(§14) 6) Drug-treated virus-infected cells are compared with drug-treated non-infected cells and with other appropriate controls (untreated infected and untreated non-infected cells, drug-containing wells without cells, etc.) on the same plate.
7) A determination of activity is made. […]

HIV [5] = assay: Reduction of HIV cytopathic effect, CEMZ (CEM line with sub-effective amount of AZT); assay type: cell-based; details: Human immunodeficiency virus 1, CCRF-CEM, CEM cells, read-out: Activity of Anti-HIV Compounds (EC50), CEMZ
Protocol: as §1, §5, §6, §7, §8

[6] = Toxicity of test compound to uninfected CEM cell line (growth inhibition); assay type: cell-based, human; details: human, cem cells, read-out: UNINFECTED CULTURE Response (%)
Protocol: as §5, §9, §10, §11, §12, §13, §14
(§15) The compound of Example 3, viz., methyl 2-chloro-5-[[(5,6-dihydro-2-methyl-1,4-oxathiin-3-yl)carbonyl]amino]benzoate, was tested against the H9/HTLV-IIIB (HIV-I) virus employing the CEM line of host cells and using free virus innoculation (denoted CEM-V). […] All concentrations are expressed in moles per liter.
(§16) The dashed line connecting the square symbols depicts the percentage of surviving uninfected cells treated with the sample relative to the same uninfected, untreated controls. This line expresses the in-vitro growth inhibitory properties of the sample and represents the second blank test.

CEM cells = assay: as above; assay type: cell-based, human; details: Homo sapiens, CCRF-CEM; CEM cells, uninfected, Table III; read-out: IC50 (50% inhibition of cell growth)
Protocol: as §5, §9, §10, §11, §12, §13, §14, §15, §16

HIV [7] = assay: HIV antiviral activity with addition delayed after infection; assay type: cell-based
[8] = tested on: succinate dehydrogenase complex; details: mitochondria from Ustilago maydis, White et al. (1978); cited from earlier work
[9] = CEM cells, free HIV, read-out: Activity of Anti-HIV Compounds (EC50), CEMV
[10] = Human immunodeficiency virus 1, CCRF-CEM, CEM cells, free HIV, read-out: Activity of Anti-HIV Compounds (EC50), CEMV

- EC50 (HIV [4]; Human immunodeficiency virus 1, IIIB, CEM-V, H9/HTLV-IIIB (HIV-I), Table III, read-out: EC50 (50% reduction in the viral cytopathic effect)): 1.91 µM
SMILES: COC(=O)c1cc(NC(=O)C2=C(C)OCCS2)ccc1Cl [Compound 3, Methyl 2-chloro-5-[[(5,6-dihydro-2-methyl-1,4-oxathiin-3-yl)carbonyl]amino]benzoate]
- concentration of maximum effect (HIV [4]; CEM-V, Figure I, point 6): about 1.7×10^-5 molar
- CONCLUSION (HIV [4]; CEM-V, Table III): ACTIVE
- viability at 172 µM (HIV [4]; Human immunodeficiency virus 1, CCRF-CEM, 1.72 × 10^-4 Molar, read-out: INFECTED CULTURE Response (%)): 10.7%
- viability at 17.2 µM (HIV [4]; Human immunodeficiency virus 1, CCRF-CEM, 1.72 × 10^-5 Molar, read-out: INFECTED CULTURE Response (%)): 89.2%
- viability at 0.172 µM (HIV [4]; Human immunodeficiency virus 1, CCRF-CEM, 1.72 × 10^-7 Molar, read-out: INFECTED CULTURE Response (%)): 23.3%
- viability at 54.4 µM (HIV [4]; Human immunodeficiency virus 1, CCRF-CEM, 5.44 × 10^-5 Molar, read-out: INFECTED CULTURE Response (%)): 86.1%
- viability at 5.45 µM (HIV [4]; Human immunodeficiency virus 1, CCRF-CEM, 5.45 × 10^-6 Molar, read-out: INFECTED CULTURE Response (%)): 78.8%
- viability at 0.546 µM (HIV [4]; Human immunodeficiency virus 1, CCRF-CEM, 5.46 × 10^-7 Molar, read-out: INFECTED CULTURE Response (%)): 15.7%
- viability at 0.0547 µM (HIV [4]; Human immunodeficiency virus 1, CCRF-CEM, 5.47 × 10^-8 Molar, read-out: INFECTED CULTURE Response (%)): 15.3%
- minimal effective concentration (HIV [4]; Human immunodeficiency virus 1, CEM-V, Figure I, point 5, read-out: concentration at which the compound began to show inhibition of the viral cytopathic effect): ~0.55 µM
- viability at 168 h, 172 µM ([6]; 1.72 × 10^-4 Molar): 10.1%
- viability at 168 h, 17.2 µM ([6]; 1.72 × 10^-5 Molar): 95.7%
- viability at 168 h, 1.72 µM ([6]; 1.72 × 10^-6 Molar): 84.6%
- viability at 168 h, 0.172 µM ([6]; 1.72 × 10^-7 Molar): 86.8%
- viability at 168 h, 54.4 µM ([6]; 5.44 × 10^-5 Molar): 97%
- viability at 168 h, 5.45 µM ([6]; 5.45 × 10^-6 Molar): 108%
- viability at 168 h, 0.546 µM ([6]; 5.46 × 10^-7 Molar): 84%
- viability at 168 h, 0.0547 µM ([6]; 5.47 × 10^-8 Molar): 86.8%
- IC50 (CEM cells): 101 µM
- protection with delayed addition (HIV [7]; delays of up to twenty hours): delays of up to twenty hours will still offer some protection
- full HIV antiviral activity after infection (HIV [7]; up to eight hours after infection): full HIV antiviral activity for up to eight hours after infection

- EC50 (HIV [5]): 0.9 µM
SMILES: Cc1oc(C)c(C(=O)Nc2ccc(Cl)c(C(=O)OC(C)C)c2)c1C [Compound 16, 1-Methylethyl 2-chloro-5-[[(2,4,5-trimethyl-3-furanyl)carbonyl]amino]benzoate]

Second part, the molecule before the results:

SMILES: CC1=C(C(=O)Nc2cc(C(=O)OC(C)C)c(Cl)cc2F)SCCO1 [Compound 2, 1-Methylethyl 2-chloro-5-[[(5,6-dihydro-2-methyl-1,4-oxathiin-3-yl)carbonyl]amino]-4-fluorobenzoate]
- EC50 (HIV [1]): 3.2 µM
- EC50 (HIV [2]): 14.4 µM
- EC50 (HIV [3]; Human immunodeficiency virus 1, CCRF-CEM, read-out: Activity of Anti-HIV Compounds (EC50), CEMC): 3.5 µM
- EC50 (HIV [4]; [9]): 1.3 µM
- EC50 (HIV [5]): 1.8 µM

SMILES: CCOC(=O)c1cccc(NC(=O)C2=C(C)OCCS2)c1 [Compound 8, Ethyl 3-[[(5,6-dihydro-2-methyl-1,4-oxathiin-3-yl)carbonyl]amino]benzoate]
- Activity class of Anti-HIV Compounds, CEMC (HIV [3]; inhibition of viral cytopathic effect): MA (moderate activity (MA), that is, inhibition between approximately 20 and 50%)
- inhibition of succinate dehydrogenase complex [8]: inhibitors of succinate dehydrogenase complex

SMILES: Cc1ccoc1C(=O)Nc1ccc(Cl)c(C(=O)OC(C)C)c1 [Compound 17, 1-Methylethyl 2-chloro-5-[[(3-methyl-2-furanyl)carbonyl]amino]benzoate]
- EC50 (HIV [4]; [10]): 3.3 µM
- EC50 (HIV [5]): 7.9 µM

SMILES: Cc1ccccc1C(=O)Nc1ccc(Cl)c(C(=O)OC(C)C)c1 [Compound 23, 1-Methylethyl 2-chloro-5-[(2-methylbenzoyl)amino]benzoate]
- EC50 (HIV [4]; [9]): 5.6 µM
- EC50 (HIV [4]; [10]): 5.8 µM
- EC50 (HIV [5]): 1.1 µM
